Measurements: patent US4605744A, “Imidazole derivatives” (Hoffmann-La Roche Inc., priority 1985, dated 1986)
Counter-ions that a name gives are not always drawn. Like-named read-outs stand apart in the source and are kept apart here.

Legend:
Assay type in all cases: cell-based
S. typhi P58A = test: In vitro antibacterial activity (MIC)
Summary of the method: (§1)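 Inoculated with 1.5 μl per well of a 10^-2 overnight-culture dilution, Mueller-Hinton broth dilutions (128–0.008 μg/ml) are incubated overnight at 37° C. No-growth endpoint defines MIC.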

E. aerogenes 8 = test: In vitro antibacterial activity (MIC)
Summary of the method: as §1

P. mirabilis 2 = test: In vitro antibacterial activity (MIC)
Summary of the method: as §1

S. marcescens 5805 = test: In vitro antibacterial activity (MIC)
Summary of the method: as §1

P. aeruginosa B = test: In vitro antibacterial activity (MIC)
Summary of the method: as §1

P. aeruginosa 5712 = test: In vitro antibacterial activity (MIC); details: P. aeruginosa 5712
Summary of the method: as §1

P. mirabilis 503-1136 = test: In vitro antibacterial activity (MIC)
Summary of the method: as §1

P. aeruginosa 503-56 = test: In vitro antibacterial activity (MIC)
Summary of the method: as §1

P. rettgeri ATCC 9250 = test: In vitro antibacterial activity (MIC)
Summary of the method: as §1

K. pneumoniae 503-994 = test: In vitro antibacterial activity (MIC)
Summary of the method: as §1

E. cloacae 24 = test: In vitro antibacterial activity (MIC)
Summary of the method: as §1

P. aeruginosa Stone 130 = test: In vitro antibacterial activity (MIC)
Summary of the method: as §1

K. pneumoniae HE7 = test: In vitro antibacterial activity (MIC); details: K. pneumoniae HE7
Summary of the method: as §1

S. marcescens SM = test: In vitro antibacterial activity (MIC)
Summary of the method: as §1

K. pneumoniae 8357 = test: In vitro antibacterial activity (MIC)
Summary of the method: as §1

K. pneumoniae A = test: In vitro antibacterial activity (MIC); details: K. pneumoniae A
Summary of the method: as §1

S. aureus Smith = test: In vitro antibacterial activity (MIC); details: S. aureus Smith
Summary of the method: as §1

E. cloacae 6951 = test: In vitro antibacterial activity (MIC)
Summary of the method: as §1

P. vulgaris ATCC 6380 = test: In vitro antibacterial activity (MIC)
Summary of the method: as §1

S. aureus 1059B = test: In vitro antibacterial activity (MIC)
Summary of the method: as §1

E. coli 257 = test: In vitro antibacterial activity (MIC, Mueller-Hinton broth)
Procedure: Drug dilutions are prepared in Mueller-Hinton broth ranging from 128 to 0.008 μg/ml. The diluted agents are dispensed in 100 μl amounts into the wells of a 96-well tray and used immediately or frozen at -10° to -70° C. until needed. Using an automated inoculator, 1.5 μl of a 10^-2 dilution of an overnight culture is added to each well of the tray. The tops of the trays are then sealed using transparent tape and incubated overnight at 37° C. The trays are examined with the aid of a viewer. The lowest concentration at which no growth is observed is considered to be the minimum inhibitory concentration (MIC).

P. aeruginosa POW 151 = test: In vitro antibacterial activity (MIC); details: Pseudomonas aeruginosa, POW151
Summary of the method: as §1

[1] = Klebsiella aerogenes, E. aerogenes 8, read-out: MIC
[2] = Proteus mirabilis, 2, P. mirabilis 2, read-out: MIC
[3] = Serratia marcescens, 5805, S. marcescens 5805, read-out: MIC
[4] = Pseudomonas aeruginosa, read-out: MIC
[5] = Proteus mirabilis, 5031136, P. mirabilis 503-1136, read-out: MIC
[6] = Providencia rettgeri, ATCC9250, P. rettgeri ATCC 9250, read-out: MIC
[7] = Klebsiella pneumoniae, 503994, K. pneumoniae 503-994, read-out: MIC
[8] = Klebsiella pneumoniae, read-out: MIC
[9] = Serratia marcescens, read-out: MIC
[10] = Klebsiella pneumoniae, 8357, K. pneumoniae 8357, read-out: MIC
[11] = Enterobacter cloacae, 6951, E. cloacae 6951, read-out: MIC
[12] = Proteus vulgaris, ATCC6380, P. vulgaris ATCC 6380, read-out: MIC
[13] = Staphylococcus aureus, read-out: MIC
[14] = Enterobacter cloacae, 24, E. cloacae 24, read-out: MIC
[15] = Escherichia coli, 257, E. coli 257, read-out: MIC
[16] = Klebsiella aerogenes, 8, E. aerogenes 8

CC1(C)S[C@@H]2[C@H](N=CN3CCCC(CCn4ccnc4)CC3)C(=O)N2[C@H]1C(=O)O.Cl.O (single isomer, unassigned) [D]
MIC (S. typhi P58A): 0.125 µg/mL | MIC (E. aerogenes 8; E. aerogenes 8): 128 µg/mL | MIC (P. mirabilis 2; P. mirabilis 2): 0.5 µg/mL | MIC (S. marcescens 5805; S. marcescens 5805): 2 µg/mL | MIC (P. aeruginosa B): 0.25 µg/mL | MIC (P. aeruginosa 5712): > 128 µg/mL | MIC (P. mirabilis 503-1136; P. mirabilis 503-1136): 16 µg/mL | MIC (P. aeruginosa 503-56; P. aeruginosa 503-56): > 128 µg/mL | MIC (P. rettgeri ATCC 9250; P. rettgeri ATCC 9250): 0.5 µg/mL | MIC (K. pneumoniae 503-994; K. pneumoniae 503-994): 0.125 µg/mL | MIC (E. cloacae 24; E. cloacae 24): 0.5 µg/mL | MIC (P. aeruginosa Stone 130): > 128 µg/mL | MIC (K. pneumoniae HE7): > 128 µg/mL | MIC (S. marcescens SM): 0.25 µg/mL | MIC (K. pneumoniae 8357; K. pneumoniae 8357): 0.25 µg/mL | MIC (K. pneumoniae A): 0.031 µg/mL | MIC (S. aureus Smith): 32 µg/mL | MIC (E. cloacae 6951; E. cloacae 6951): 16 µg/mL | MIC (P. vulgaris ATCC 6380; P. vulgaris ATCC 6380): 0.125 µg/mL | MIC (S. aureus 1059B): 128 µg/mL | MIC (E. coli 257; E. coli 257): 0.125 µg/mL

CC1(C)S[C@@H]2[C@H](N=CN3CCC(CCn4ccnc4)CC3)C(=O)N2[C@H]1C(=O)O [B, [2S-2alpha,5alpha,6beta)]-6-[[[4-[2-(1H-imidazol-1-yl)ethyl]-1-piperidinyl]methylene]amino]-3,3-dimethyl-7-oxo-4-thia-1-azabicyclo[3.2.0]heptane-2-carboxylic acid hydrate hydrochloride]
MIC (S. typhi P58A; Salmonella enterica, TYPHI): 0.062 µg/mL | MIC (E. aerogenes 8; [1]): 0.25 µg/mL | MIC (P. mirabilis 2; [2]): 1 µg/mL | MIC (S. marcescens 5805; [3]): 1 µg/mL | MIC (P. aeruginosa B; [4]): > 128 µg/mL | MIC (P. aeruginosa 5712; [4]): > 128 µg/mL | MIC (P. mirabilis 503-1136; [5]): 8 µg/mL | MIC (P. rettgeri ATCC 9250; [6]): 0.5 µg/mL | MIC (K. pneumoniae 503-994; [7]): 0.25 µg/mL | MIC (E. cloacae 24; Enterobacter cloacae, 24): 2 µg/mL | MIC (P. aeruginosa POW 151): > 128 µg/mL | MIC (K. pneumoniae HE7; [8]): > 128 µg/mL | MIC (S. marcescens SM; [9]): 0.25 µg/mL | MIC (K. pneumoniae 8357; [10]): 0.25 µg/mL | MIC (K. pneumoniae A; [8]): 0.062 µg/mL | MIC (E. cloacae 6951; [11]): 16 µg/mL | MIC (P. vulgaris ATCC 6380; [12]): 0.5 µg/mL | MIC (S. aureus 1059B; [13]): > 128 µg/mL | MIC (E. coli 257; Escherichia coli, 257): 0.25 µg/mL

CC1(C)S[C@@H]2[C@H](N=CN3CCCC(c4ncc[nH]4)C3)C(=O)N2[C@H]1C(=O)O (stereo partly drawn) [P, [2S-(2alpha,5alpha,6beta)]-6-[[[3-(1H-imidazol-2-yl)-1-piperidinyl]methylene]amino]-3,3-dimethyl-7-oxo-4-thia-1-azabicyclo[3.2.0]heptane-2-carboxylicacid hydrochloride]
MIC (S. typhi P58A; Salmonella enterica, TYPHI): 2 µg/mL | MIC (E. aerogenes 8; [1]): 16 µg/mL | MIC (P. mirabilis 2; [2]): 8 µg/mL | MIC (S. marcescens 5805; [3]): 128 µg/mL | MIC (P. mirabilis 503-1136; [5]): 64 µg/mL | MIC (P. rettgeri ATCC 9250; [6]): 4 µg/mL | MIC (K. pneumoniae 503-994; [7]): 8 µg/mL | MIC (E. cloacae 24; [14]): 8 µg/mL | MIC (K. pneumoniae HE7; [8]): 128 µg/mL | MIC (S. marcescens SM; [9]): 8 µg/mL | MIC (K. pneumoniae 8357; [10]): 8 µg/mL | MIC (K. pneumoniae A; [8]): 2 µg/mL | MIC (S. aureus Smith; [13]): 2 µg/mL | MIC (E. cloacae 6951; [11]): > 128 µg/mL | MIC (P. vulgaris ATCC 6380; Proteus vulgaris, ATCC6380): 0.5 µg/mL | MIC (S. aureus 1059B; [13]): 64 µg/mL | MIC (E. coli 257; Escherichia coli, 257): 2 µg/mL

CC1(C)S[C@@H]2[C@H](N=CN3CCC(Cc4ncc[nH]4)CC3)C(=O)N2[C@H]1C(=O)O [Q, [2S-(2alpha,5alpha,6beta)]-6-[[[4-(1H-imidazol-2-yl-methyl)-1-piperidinyl]methylene]amino]-3,3-dimethyl-7-oxo-4-thia-1-azabicyclo[3.2.0]heptane-2-carboxylic acid hydrochloride]
MIC (S. typhi P58A; Salmonella enterica, TYPHI): 8 µg/mL | MIC (E. aerogenes 8; [1]): 0.125 µg/mL | MIC (P. mirabilis 2; [2]): 8 µg/mL | MIC (S. marcescens 5805; [3]): 1 µg/mL | MIC (P. mirabilis 503-1136; [5]): 8 µg/mL | MIC (P. rettgeri ATCC 9250; [6]): 16 µg/mL | MIC (K. pneumoniae 503-994; [7]): 8 µg/mL | MIC (E. cloacae 24; [14]): 0.5 µg/mL | MIC (P. aeruginosa Stone 130; Pseudomonas aeruginosa, STONE130, read-out: MIC): > 128 µg/mL | MIC (P. aeruginosa POW 151): > 128 µg/mL | MIC (K. pneumoniae HE7; [8]): > 128 µg/mL | MIC (S. marcescens SM; [9]): 0.125 µg/mL | MIC (K. pneumoniae 8357; [10]): 4 µg/mL | MIC (K. pneumoniae A; [8]): 0.062 µg/mL | MIC (S. aureus Smith; [13]): 8 µg/mL | MIC (E. cloacae 6951; [11]): 16 µg/mL | MIC (P. vulgaris ATCC 6380; [12]): 0.016 µg/mL | MIC (S. aureus 1059B; [13]): 128 µg/mL | MIC (E. coli 257; [15]): 0.062 µg/mL

CC1(C)S[C@@H]2[C@H](N=CN3CCC(CCCn4ccnc4CO)CC3)C(=O)N2[C@H]1C(=O)O [R, [2S-(2alpha,5alpha,6beta)]-6-[[[4-[3-[2-(hydroxymethyl)-1H-imidazol-1-yl]propyl-1-piperidinyl]methylene]amino]-3,3-dimethyl-7-oxo-4-thia-1-azabicyclo[3.2.0]heptane-2-carboxylic acid hydrochloride 1.1 molar hydrate]
MIC (S. typhi P58A; Salmonella enterica, TYPHI): 0.062 µg/mL | MIC (E. aerogenes 8; [16]): 32 µg/mL | MIC (P. mirabilis 2; [2]): 0.25 µg/mL | MIC (S. marcescens 5805; [3]): 1 µg/mL | MIC (P. mirabilis 503-1136; [5]): 4 µg/mL | MIC (P. rettgeri ATCC 9250; [6]): 0.062 µg/mL | MIC (K. pneumoniae 503-994; [7]): 0.016 µg/mL | MIC (E. cloacae 24; [14]): 0.25 µg/mL | MIC (K. pneumoniae HE7; [8]): > 128 µg/mL | MIC (S. marcescens SM; [9]): 0.062 µg/mL | MIC (K. pneumoniae 8357; [10]): 0.062 µg/mL | MIC (K. pneumoniae A; [8]): < 0.008 µg/mL | MIC (S. aureus Smith; [13]): 8 µg/mL | MIC (E. cloacae 6951; [11]): 8 µg/mL | MIC (P. vulgaris ATCC 6380; [12]): < 0.008 µg/mL | MIC (S. aureus 1059B; [13]): 64 µg/mL | MIC (E. coli 257; [15]): 0.016 µg/mL

CN(C)C=Nc1nccn1CCCC1CCN(C=N[C@@H]2C(=O)N3[C@@H]2SC(C)(C)[C@@H]3C(=O)O)CC1 [S, [2S-(2alpha,5alpha,6beta)]-6-[[[4-[3-[2-[[(dimethylamino)methylene]amino]-1H-imidazol-1-yl]propyl]-1-piperidinyl]methylene]amino]-3,3-dimethyl-7-oxo-4-thia-1-azabicyclo[3.2.0]heptane-2-carboxylic acid 1.7 molar hydrochloride 2.6 molar hydrate]
MIC (S. typhi P58A; Salmonella enterica, TYPHI): 0.25 µg/mL | MIC (E. aerogenes 8; [16]): 32 µg/mL | MIC (P. mirabilis 2; [2]): 2 µg/mL | MIC (S. marcescens 5805; [3]): 4 µg/mL | MIC (P. mirabilis 503-1136; [5]): 8 µg/mL | MIC (P. aeruginosa 503-56; Pseudomonas aeruginosa, 50356, P. aeruginosa 503-56, read-out: MIC): > 128 µg/mL | MIC (P. rettgeri ATCC 9250; [6]): 0.25 µg/mL | MIC (K. pneumoniae 503-994; [7]): 0.5 µg/mL | MIC (E. cloacae 24; [14]): 1 µg/mL | MIC (K. pneumoniae HE7; [8]): > 128 µg/mL | MIC (S. marcescens SM; [9]): 2 µg/mL | MIC (K. pneumoniae 8357; [10]): 0.5 µg/mL | MIC (K. pneumoniae A; [8]): 0.5 µg/mL | MIC (S. aureus Smith; [13]): 8 µg/mL | MIC (E. cloacae 6951; [11]): 8 µg/mL | MIC (P. vulgaris ATCC 6380; [12]): 1 µg/mL | MIC (S. aureus 1059B; [13]): 64 µg/mL | MIC (E. coli 257; [15]): 0.25 µg/mL
